Each compound was assayed on IL10 secretion, OCI-LY10 cells (assay: Human IL10 secretion assay, Assay 1 (HTRF)). Conditions: 24 h incubation, read-out: IL-10 Secretion IC50 [nM] Assay 1.
Type: cell-based
Procedure: IL10 is one of the cytokines that are regulated via activation of NF-kB signaling. For example, in ABC-DLBCL cell lines, the activated NF-kB signaling leads to increased IL10 secretion. Inhibition of NF-kB signaling has been shown leading to decreased IL10 secretion.
Assay 1: OCI-LY10 cells were seeded in IMEM supplemented with 20% fetal bovine serum at 3×10^5 cells per well in 96-well round bottom plates (Corning 3799, Corning), treated with 100 nL of 3-fold serial compound dilutions, starting at 10 mM. The final vehicle concentration was 0.1% DMSO in all wells. After 24 h incubation, the cells were transferred to 96-PCR plates (Axygen: PCR-96-FLT-C) and centrifuged, then 16 μL of cell culture media was transferred to HTRF plates and IL10 levels were measured using human IL-10 Assay Kits (Cisbio) using HTRF format. The signals were transformed to percentage of remaining activity by using the high control (HC, median of signal from wells containing cells treated with DMSO) and low control (LC, median of signal from wells with no cells). IC50 values (nM) were determined using 4-parametric curve-fitting and Hill coefficient were obtained using Graph Pad Prism (Graph Pad software, Inc, USA) with non-linear regression analysis.

SMILES	IC50 [nM]
Cc1cc2ncc3c(n2n1)C(C(F)(F)F)CCN3C(=O)Nc1cnc(-n2nccn2)c(Cl)c1 (centres unmarked) [compound 10, N-(5-chloro-6-(2H-1,2,3-triazol-2-yl)pyridin-3-yl)-2-methyl-9-(trifluoromethyl)-8,9-dihydropyrazolo[1,5-a]pyrido[2,3-e]pyrimidine-6(7H)-carboxamide]	100 to 1000
COc1ccc(NC(=O)N2C[C@@](C)(C(F)(F)F)c3c2cnc2cc(Cl)nn32)cc1Cl [compound 19, (R)-2-chloro-N-(3-chloro-4-methoxyphenyl)-8-methyl-8-(trifluoromethyl)-7,8-dihydro-6H-pyrazolo[1,5-a]pyrrolo[2,3-e]pyrimidine-6-carboxamide]	100 to 1000
C[C@@]1(C(F)(F)F)CN(C(=O)Nc2cnc(N=S(C)(C)=O)c(Cl)c2)c2cnc3cc(Cl)nn3c21 [compound 85]	100 to 1000
C[C@@]1(C(F)(F)F)CN(C(=O)Nc2cc(N=S(C)(C)=O)nc(C(F)(F)F)c2)c2cnc3cc(Cl)nn3c21 [compound 83]	100 to 1000
COc1cnc(C(F)(F)F)cc1NC(=O)N1C[C@@](C)(C(F)(F)F)c2c1cnc1cc(Cl)nn21 [compound 66, (R)-2-chloro-N-(5-methoxy-2-(trifluoromethyl)pyridin-4-yl)-8-methyl-8-(trifluoromethyl)-7,8-dihydro-6H-pyrazolo[1,5-a]pyrrolo[2,3-e]pyrimidine-6-carboxamide]	100 to 1000
COc1c(Cl)cc(NC(=O)N2C[C@@](C)(C(F)(F)F)c3c2cnc2cc(Cl)nn32)nc1O[C@H]1CCNC1 [compound 63, (R)-2-chloro-N-(4-chloro-5-methoxy-6-(((S)-pyrrolidin-3-yl)oxy)pyridin-2-yl)-8-methyl-8-(trifluoromethyl)-7,8-dihydro-6H-pyrazolo[1,5-a]pyrrolo[2,3-e]pyrimidine-6-carboxamide]	10 to 100
C[C@@]1(C(F)(F)F)CN(C(=O)Nc2cnc(-n3ccnn3)c(C(F)F)c2)c2cnc3cc(Cl)nn3c21 [compound 36, (R)-2-chloro-N-(5-(difluoromethyl)-6-(1H-1,2,3-triazol-1-yl)pyridin-3-yl)-8-methyl-8-(trifluoromethyl)-7,8-dihydro-6H-pyrazolo[1,5-a]pyrrolo[2,3-e]pyrimidine-6-carboxamide]	10 to 100

The next lines start with the values.

IC50 [nM]	SMILES
10 to 100	CC1(C)CCN(C(=O)Nc2cnc(-n3nccn3)c(Cl)c2)c2cnc3cc(Cl)nn3c21 [compound 7, 2-chloro-N-(5-chloro-6-(2H-1,2,3-triazol-2-yl)pyridin-3-yl)-9,9-dimethyl-8,9-dihydropyrazolo[1,5-a]pyrido[2,3-e]pyrimidine-6(7H)-carboxamide]
10 to 100	Cc1cc(NC(=O)N2C[C@@](C)(C(F)(F)F)c3c2cnc2cc(Cl)nn32)cnc1-n1nccn1 [compound 21, (R)-2-chloro-8-methyl-N-(5-methyl-6-(2H-1,2,3-triazol-2-yl)pyridin-3-yl)-8-(trifluoromethyl)-7,8-dihydro-6H-pyrazolo[1,5-a]pyrrolo[2,3-e]pyrimidine-6-carboxamide]
10 to 100	C[C@@]1(C(F)(F)F)CN(C(=O)Nc2cnc(-n3cc(CO)cn3)c(Cl)c2)c2cnc3cc(Cl)nn3c21 [compound 57, (R)-2-chloro-N-(5-chloro-6-(4-(hydroxymethyl)-1H-pyrazol-1-yl)pyridin-3-yl)-8-methyl-8-(trifluoromethyl)-7,8-dihydro-6H-pyrazolo[1,5-a]pyrrolo[2,3-e]pyrimidine-6-carboxamide]
10 to 100	C[C@@]1(C(F)(F)F)CN(C(=O)Nc2cnc(-n3ccnn3)c(C(F)(F)F)c2)c2cnc3cc(Cl)nn3c21 [compound 44, (R)-N-(6-(1H-1,2,3-triazol-1-yl)-5-(trifluoromethyl)pyridin-3-yl)-2-chloro-8-methyl-8-(trifluoromethyl)-7,8-dihydro-6H-pyrazolo[1,5-a]pyrrolo[2,3-e]pyrimidine-6-carboxamide]
10 to 100	COCc1cnn(-c2ncc(NC(=O)N3C[C@@](C)(C(F)(F)F)c4c3cnc3cc(Cl)nn43)cc2Cl)n1 [compound 79, (R)-2-chloro-N-(5-chloro-6-(4-(methoxymethyl)-2H-1,2,3-triazol-2-yl)pyridin-3-yl)-8-methyl-8-(trifluoromethyl)-7,8-dihydro-6H-pyrazolo[1,5-a]pyrrolo[2,3-e]pyrimidine-6-carboxamide]
10 to 100	C[C@@]1(C(F)(F)F)CN(C(=O)Nc2cnc(-n3nccn3)c(C#N)c2)c2cnc3cc(Cl)nn3c21 [compound 41, (R)-2-chloro-N-(5-cyano-6-(2H-1,2,3-triazol-2-yl)pyridin-3-yl)-8-methyl-8-(trifluoromethyl)-7,8-dihydro-6H-pyrazolo[1,5-a]pyrrolo[2,3-e]pyrimidine-6-carboxamide]
10 to 100	COc1ncc(NC(=O)N2C[C@@](C)(C(F)(F)F)c3c2cnc2cc(Cl)nn32)cc1Cl [compound 18, (R)-2-chloro-N-(5-chloro-6-methoxypyridin-3-yl)-8-methyl-8-(trifluoromethyl)-7,8-dihydro-6H-pyrazolo[1,5-a]pyrrolo[2,3-e]pyrimidine-6-carboxamide]
10 to 100	C[C@@]1(C(F)(F)F)CN(C(=O)Nc2cnc(-n3cc(O)cn3)c(Cl)c2)c2cnc3cc(Cl)nn3c21 [compound 48]
10 to 100	C[C@@]1(C(F)(F)F)CN(C(=O)Nc2ccnc(C(F)(F)F)c2)c2cnc3cc(Cl)nn3c21 [compound 27, (R)-2-chloro-8-methyl-8-(trifluoromethyl)-N-(2-(trifluoromethyl)pyridin-4-yl)-7,8-dihydro-6H-pyrazolo[1,5-a]pyrrolo[2,3-e]pyrimidine-6-carboxamide]
10 to 100	C[C@@]1(C(F)(F)F)CN(C(=O)Nc2ccnc(C(F)F)c2)c2cnc3cc(Cl)nn3c21 [compound 60, (R)-2-chloro-N-(2-(difluoromethyl)pyridin-4-yl)-8-methyl-8-(trifluoromethyl)-7,8-dihydro-6H-pyrazolo[1,5-a]pyrrolo[2,3-e]pyrimidine-6-carboxamide]

Each compound was assayed against full-length MALT1 protein His-MALT1(1-824) (Homo sapiens (Human), UniProt Q9UDY8) (assay: MALT1 protease assay, Assay 2 (1 nM MALT1, Ac-LRSR-AMC substrate)). Conditions: 1 nM MALT1, 50 μM Ac-LRSR-AMC, 2 h pre-incubation, 8 hr incubation at RT.
Chain of full-length MALT1 protein His-MALT1(1-824) (Q9UDY8 whole entry): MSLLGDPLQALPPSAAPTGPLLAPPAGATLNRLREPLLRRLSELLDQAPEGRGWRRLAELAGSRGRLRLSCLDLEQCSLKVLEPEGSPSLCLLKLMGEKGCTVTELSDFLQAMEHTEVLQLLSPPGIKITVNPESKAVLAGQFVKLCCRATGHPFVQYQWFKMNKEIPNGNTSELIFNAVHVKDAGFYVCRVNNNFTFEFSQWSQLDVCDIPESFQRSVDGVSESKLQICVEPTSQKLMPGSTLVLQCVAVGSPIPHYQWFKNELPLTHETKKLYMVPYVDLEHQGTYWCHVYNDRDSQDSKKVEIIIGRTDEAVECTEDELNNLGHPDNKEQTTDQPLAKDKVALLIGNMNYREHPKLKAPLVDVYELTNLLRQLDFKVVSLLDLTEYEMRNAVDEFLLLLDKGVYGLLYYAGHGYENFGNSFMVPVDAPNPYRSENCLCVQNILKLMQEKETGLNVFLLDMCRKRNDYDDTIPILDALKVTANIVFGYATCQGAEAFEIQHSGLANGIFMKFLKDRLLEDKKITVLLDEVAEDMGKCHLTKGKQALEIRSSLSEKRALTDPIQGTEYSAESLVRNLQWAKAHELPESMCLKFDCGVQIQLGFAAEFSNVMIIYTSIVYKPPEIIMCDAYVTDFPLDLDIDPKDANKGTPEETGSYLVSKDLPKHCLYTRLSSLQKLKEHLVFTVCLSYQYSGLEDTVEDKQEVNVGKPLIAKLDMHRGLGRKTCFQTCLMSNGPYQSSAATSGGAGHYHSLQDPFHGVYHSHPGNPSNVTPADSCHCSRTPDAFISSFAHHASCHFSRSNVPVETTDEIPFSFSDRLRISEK
Type: biochemical
Procedure: MALT1 protease activity was assessed in an in vitro assay using a tetrapeptide as substrate and full-length MALT1 protein His-MALT1(1-824) purified from baculovirus-infected insect cells.
The final assay buffer includes 1 nM (Assay 2) or 2 nM (Assay 1) of MALT1 full-length protein, 50 μM Ac-LRSR-AMC substrate, 50 mM Tris pH 7.5, 600 mM Sodium Citrate, 1 mM DTT, 1 mM EDTA, and 0.05% BSA in 384-well plate format using black microtiter square well plates (Optiplate 384-F, Perkin Elmer).
Test compounds were dissolved in 100% DMSO at stock of 10 mM, with final DMSO concentration 0.1%. Test compounds were pre-incubated with MALT1 protein for 2 h at room temperature. Substrate was added after the pre-incubation and fluorescence signal was measured using Envision at excitation 355 nm and emission 460 nm after 8 hr incubation at RT.
The fluorescence units were transformed to percentage of remaining activity by using the high control (HC, median of fluorescence signal from wells containing MALT1 protein, substrate, and DMSO) and low control (LC, median of fluorescence signal from wells with substrate only) with the formula below: […]
IC50 and Hill coefficient were obtained using Graph Pad Prism (Graph Pad software, Inc, USA) with non-linear regression analysis.

IC50 [nM]	SMILES
100 to 1000	C[C@@]1(C(F)(F)F)CN(C(=O)NC2CCC3(CC2)CC3)c2cnc3cc(Cl)nn3c21 [compound 172, (R)-2-chloro-8-methyl-N-(spiro[2.5]octan-6-yl)-8-(trifluoromethyl)-7,8-dihydro-6H-pyrazolo[1,5-a]pyrrolo[2,3-e]pyrimidine-6-carboxamide]
100 to 1000	C[C@@]1(C(F)(F)F)CN(C(=O)Nc2ccnc(C(F)(F)F)c2F)c2cnc3cc(Cl)nn3c21 [compound 100, (R)-2-chloro-N-(3-fluoro-2-(trifluoromethyl)pyridin-4-yl)-8-methyl-8-(trifluoromethyl)-7,8-dihydro-6H-pyrazolo[1,5-a]pyrrolo[2,3-e]pyrimidine-6-carboxamide]
10 to 100	CC(C)(O)Cn1ccc(-c2ncc(NC(=O)N3C[C@@](C)(C(F)(F)F)c4c3cnc3cc(F)nn43)cc2C(F)F)n1 [compound 162, (R)-N-(5-(difluoromethyl)-6-(1-(2-hydroxy-2-methylpropyl)-1H-pyrazol-3-yl)pyridin-3-yl)-2-fluoro-8-methyl-8-(trifluoromethyl)-7,8-dihydro-6H-pyrazolo[1,5-a]pyrrolo[2,3-e]pyrimidine-6-carboxamide]
100 to 1000	CC(O)c1cc2ncc3c(n2n1)C(C)(C(F)(F)F)CN3C(=O)Nc1cnc(-n2nccn2)c(Cl)c1 (centres unmarked) [compound 80, N-(5-chloro-6-(2H-1,2,3-triazol-2-yl)pyridin-3-yl)-2-(1-hydroxyethyl)-8-methyl-8-(trifluoromethyl)-7,8-dihydro-6H-pyrazolo[1,5-a]pyrrolo[2,3-e]pyrimidine-6-carboxamide]
100 to 1000	COc1nc(OC2CN(C)C2)c(NC(=O)N2C[C@@](C)(C(F)(F)F)c3c2cnc2cc(Cl)nn32)cc1Cl [compound 81, (R)-2-chloro-N-(5-chloro-6-methoxy-2-((1-methylazetidin-3-yl)oxy)pyridin-3-yl)-8-methyl-8-(trifluoromethyl)-7,8-dihydro-6H-pyrazolo[1,5-a]pyrrolo[2,3-e]pyrimidine-6-carboxamide]
10 to 100	CN1CC(Oc2cc(NC(=O)N3C[C@@](C)(C(F)(F)F)c4c3cnc3cc(Cl)nn43)cc(C(F)(F)F)n2)C1 [compound 121, (R)-2-chloro-8-methyl-N-(2-((1-methylazetidin-3-yl)oxy)-6-(trifluoromethyl)pyridin-4-yl)-8-(trifluoromethyl)-7,8-dihydro-6H-pyrazolo[1,5-a]pyrrolo[2,3-e]pyrimidine-6-carboxamide]

From patent publication US20240018157A1, “CYCLIC COMPOUNDS AND METHODS OF USING SAME” (Schrödinger, Inc., priority 2019, published 2024)
